Source: article PMC6853638, “TMC1 is an essential component of a leak channel that modulates tonotopy and excitability of auditory hair cells in mice” (eLife, 2019)
Numbering of substitutions follows the chain as printed. “And” between values parts separate entries of the source, which are not always exact repeats. Equal values may be shown once.

Assays:
Assay in all cases: Background current before and after MTSET treatment in Tmc1-knockout OHCs expressing cysteine-substituted TMC1
[1] = molecular target: T1, cysteine-substituted TMC1 constructs (Mus musculus, UniProt Q8R4P5, M412C); assay type: cell-based; details: Tmc1-knockout OHCs expressing TMC1-M412C, individual cells
T1 construct: control full-length TMC1 (TMC1_WT); expressed in transfected cells; host or cells: Tmc1-knockout mouse OHCs, injectoporation
T1 sequence (Q8R4P5 1-757 M412C): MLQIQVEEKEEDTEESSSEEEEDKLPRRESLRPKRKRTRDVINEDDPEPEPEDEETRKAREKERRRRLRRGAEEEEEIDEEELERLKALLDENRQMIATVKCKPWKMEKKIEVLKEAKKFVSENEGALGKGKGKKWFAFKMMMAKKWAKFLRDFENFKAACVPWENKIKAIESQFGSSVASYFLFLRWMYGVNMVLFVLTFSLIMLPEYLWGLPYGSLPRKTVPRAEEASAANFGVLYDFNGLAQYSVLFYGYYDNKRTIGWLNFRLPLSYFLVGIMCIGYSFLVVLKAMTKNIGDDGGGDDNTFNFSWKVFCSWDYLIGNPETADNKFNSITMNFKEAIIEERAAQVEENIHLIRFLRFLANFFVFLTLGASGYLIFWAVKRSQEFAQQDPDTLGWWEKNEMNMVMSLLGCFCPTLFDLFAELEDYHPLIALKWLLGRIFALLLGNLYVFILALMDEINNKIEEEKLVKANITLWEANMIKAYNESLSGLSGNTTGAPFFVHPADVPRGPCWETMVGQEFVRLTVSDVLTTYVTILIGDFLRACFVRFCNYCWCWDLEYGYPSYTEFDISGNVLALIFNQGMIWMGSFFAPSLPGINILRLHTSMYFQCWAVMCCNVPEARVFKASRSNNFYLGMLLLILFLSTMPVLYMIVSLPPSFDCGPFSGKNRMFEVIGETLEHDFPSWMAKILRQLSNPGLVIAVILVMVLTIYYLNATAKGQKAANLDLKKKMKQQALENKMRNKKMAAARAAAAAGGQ
Experimental: (§1) Mouse Tmc1 and Tmc2 cDNAs were cloned into CMV-Script and pCDNA3.1- vectors, respectively. To obtain the Tmc1-deafness vector and amino-acid-substituted Tmc1 constructs, specific primers were designed and used for PCR (Supplementary File 1). […] In brief, the organ of Corti was isolated from P3 mice and cut into three pieces in Dulbecco’s modified Eagle’s medium/F12 with 1.5 μg/ml ampicillin. For electroporation, a glass pipette (2 μm tip diameter) was used to deliver cDNA plasmids (0.2 μg/μl in 1 × Hanks' balanced salt solution) to hair cells in the sensory epithelium. EGFP was used as an indicator for the selection of transfected hair cells. A series of three pulses at 60 V lasting 15 ms at 1 s intervals was applied to cochlear tissues by an electroporator (ECM Gemini X2, BTX, CA). The cochlear tissues were cultured for 1 day in vitro and then used for electrophysiological recording.
(§2) All experiments were performed at room temperature (20–25°C). Briefly, the basilar membrane with hair cells was acutely dissected from neonatal mice. […] The acutely isolated or cultured basilar membrane was used for electrophysiological recording within 1 h. […] Hair cells were recorded with a patch-clamp amplifier (EPC 10 USB and Patchmaster software, HEKA Elektronik, Lambrecht/Pfalz, Germany).
(§3) The sampling rate was 1 kHz for leak current recording, 50 kHz for the IV protocol and current-clamp recording, and 100 kHz for unitary channel recording. The voltage-clamp used a –70 mV holding potential, and the current-clamp was held at 0 pA. Only recordings with a current baseline <20 pA in NMDG solution were used for statistical analysis.

[2] = molecular target: T2, cysteine-substituted TMC1 constructs (Mus musculus, UniProt Q8R4P5, D528C); assay type: cell-based; details: Tmc1-knockout OHCs expressing TMC1-D528C, individual cells
T2 construct: control full-length TMC1 (TMC1_WT); expressed in transfected cells; host or cells: Tmc1-knockout mouse OHCs, injectoporation
T2 sequence (Q8R4P5 1-757 D528C): T1 sequence (Q8R4P5 1-757 M412C) with C412M, D528C
Experimental: as §1, §2, §3

[3] = tested on: cysteine-substituted TMC1 constructs; assay type: cell-based, mouse; details: OHCs expressing any of the six cysteine-substituted TMC1 constructs
Experimental: as §1, §2, §3

Q: With C[N+](C)(C)CCSS(C)(=O)=O.[Br-] [MTSET, 2-(trimethylammonium)ethyl methanethiosulfonate, bromide] as the compound, how does the “amplitude of the background current after MTSET treatment” value [1] read?
A: Its value is -35.9532 and -37.439 and -48.1972 and -25.6217 and -14.3767 and -67.9843.

Q: And the “amplitude of the background current after MTSET treatment” value [2]?
A: Its value is -23.6585 and -22.824 and -11.63 and -11.1296.

Q: What about the “effect on the current baseline” value [3] of the same compound?
A: Its value is “did not, however, change the current baseline”.
